Test results taken from paper PMC9127750, “Structure-based design of CDC42 effector interaction inhibitors for the treatment of cancer” (Cell reports, 2022).
Several values for one entry are separate records, joined by “and”; a condition that tells them apart may be missing. Identical values can stand only once.

Tested on: WM3248 melanoma cells, 486 antibodies
Assay: Reverse phase protein arrays (RPPA)
Assay type: cell-based, Human
Conditions: 20 uM
Text: Pellets were snap frozen in liquid nitrogen and shipped to MD Anderson Cancer Center core RPPA facility for RPPA analysis (Table S5). Three biological replicates for each sample were generated.
Nomenclatures on the RPPA heatmaps: name_of_antibody.species_of_antibody.status_of_antibody. V - antibody validated; C - validation of antibody in progress; Q - antibody nonspecific; E – under evaluation; antibodies raised in M - mouse, G - goat, R - rabbit, or T - rat.

In the case of `CN(C)c1cccc(Nc2cc(-c3ccccc3)nc(C3CCNCC3)n2)c1` [ARN22089, N1,N1-dimethyl-N3-(6-phenyl-2-(piperidin-4-yl)pyrimidin-4-yl)benzene-1,3-diamine], the “RPPA SGK1.R.V Average” value (average of 3) is reported as 0.842, the “RPPA SGK3.R.V Average” value (average of 3) is reported as 1.023 and the “RPPA SHP2.R.V Average” value (average of 3) is reported as 1.005. The “RPPA SHP.2_pY542.R.C Average” value (average of 3) was 1.076, the “RPPA SIRPαR.V Average” value (average of 3) was 0.981 and the “RPPA SLC1A5.R.C Average” value (average of 3) was 1.080. The “RPPA SOD1.M.V Average” value (average of 3) was 0.967, the “RPPA SOD2.R.V Average” value (average of 3) was 1.111 and the “RPPA SOX7.R.V Average” value (average of 3) was 1.078. The “RPPA STING.R.V Average” value (average of 3) was 0.964, the “RPPA Shc_pY317.R.C Average” value (average of 3) was 1.012 and the “RPPA Slfn11.G.C Average” value (average of 3) was 0.995. For the same compound, the “RPPA Smac.M.Q Average” value (average of 3) was 0.977, the “RPPA Smad1.R.V Average” value (average of 3) was 1.081 and the “RPPA Smad3.R.V Average” value (average of 3) was 1.101. The “RPPA Smad4.R.V Average” value (average of 3) was 1.112, the “RPPA Snail.M.Q Average” value (average of 3) was 0.754 and the “RPPA Sox2.R.V Average” value (average of 3) was 1.223. For the same compound, the “RPPA Sox17.R.V Average” value (average of 3) was 0.982, the “RPPA Src.M.V Average” value (average of 3) was 0.962 and the “RPPA Src_pY416.R.V Average” value (average of 3) was 1.034. The “RPPA Src_pY527.R.V Average” value (average of 3) was 1.187, the “RPPA Stat3.R.C Average” value (average of 3) was 0.979 and the “RPPA Stat3_pY705.R.C Average” value (average of 3) was 1.281. The “RPPA Stat5a.R.V Average” value (average of 3) was 1.185, the “RPPA Stathmin.1.R.V Average” value (average of 3) was 0.924 and the “RPPA Syk.M.V Average” value (average of 3) was 0.975. The “RPPA TAZ.R.V Average” value (average of 3) was 0.719, the “RPPA TEAD.R.C Average” value (average of 3) was 0.998 and the “RPPA TFAM.R.V Average” value (average of 3) was 0.978. For the same compound, the “RPPA TFRC.R.V Average” value (average of 3) was 0.934, the “RPPA TRAP1.M.V Average” value (average of 3) was 0.944 and the “RPPA TRIM24.R.C Average” value (average of 3) was 1.085. The “RPPA TRIM25.R.C Average” value (average of 3) was 0.893, the “RPPA TRIP13.R.V Average” value (average of 3) was 0.978 and the “RPPA Transglutaminase.M.V Average” value (average of 3) was 1.323. The “RPPA signal, antibody TSC1.R.C, Average” value (average of 3 replicates) was 0.906, the “RPPA signal, antibody TTF1.R.V, Average” value (average of 3 replicates) was 1.016 and the “RPPA signal, antibody TUFM.R.V, Average” value (average of 3 replicates) was 1.103. For the same compound, the “RPPA signal, antibody Tuberin_pT1462.R.V, Average” value (average of 3 replicates) was 1.116, the “RPPA signal, antibody Twist.M.C, Average” value (average of 3 replicates) was 0.954 and the “RPPA signal, antibody Tyro3.R.V, Average” value (average of 3 replicates) was 1.154. For the same compound, the “RPPA signal, antibody U.Histone.H2B.R.C, Average” value (average of 3 replicates) was 2.471, the “RPPA signal, antibody UBAC1.R.V, Average” value (average of 3 replicates) was 1.016 and the “RPPA signal, antibody UGT1A.M.V, Average” value (average of 3 replicates) was 1.000. For the same compound, the “RPPA signal, antibody ULK1_pS757.R.C, Average” value (average of 3 replicates) was 0.908, the “RPPA signal, antibody UQCRC2.M.C, Average” value (average of 3 replicates) was 0.887 and the “RPPA signal, antibody VASP.R.V, Average” value (average of 3 replicates) was 0.952. The “RPPA signal, antibody VAV1.R.C, Average” value (average of 3 replicates) was 1.024, the “RPPA signal, antibody VEGFR.2.R.V, Average” value (average of 3 replicates) was 0.928 and the “RPPA signal, antibody VEGFR.2_pY1175.R.C, Average” value (average of 3 replicates) was 1.063. The “RPPA signal, antibody VHL.EPPK1.M.C, Average” value (average of 3 replicates) was 1.020, the “RPPA signal, antibody VHL.R.C, Average” value (average of 3 replicates) was 0.956 and the “RPPA signal, antibody Vinculin.M.V, Average” value (average of 3 replicates) was 0.913. The “RPPA signal, antibody WIPI2.R.C, Average” value (average of 3 replicates) was 1.142, the “RPPA signal, antibody WTAP.R.V, Average” value (average of 3 replicates) was 1.197 and the “RPPA signal, antibody Wee1.R.C, Average” value (average of 3 replicates) was 1.011. For the same compound, the “RPPA signal, antibody XBP.1.G.C, Average” value (average of 3 replicates) was 0.972, the “RPPA signal, antibody XIAP.R.C, Average” value (average of 3 replicates) was 0.993 and the “RPPA signal, antibody XPA.M.V, Average” value (average of 3 replicates) was 0.982. The “RPPA signal, antibody XPF.R.C, Average” value (average of 3 replicates) was 0.952, the “RPPA signal, antibody XRCC1.R.C, Average” value (average of 3 replicates) was 1.024 and the “RPPA signal, antibody YAP.R.C, Average” value (average of 3 replicates) was 0.993. The “RPPA signal, antibody YB1_pS102.R.V, Average” value (average of 3 replicates) was 1.015, the “RPPA signal, antibody YES1.R.V, Average” value (average of 3 replicates) was 0.974 and the “RPPA signal, antibody YTHDF2.R.V, Average” value (average of 3 replicates) was 1.022. For the same compound, the “RPPA signal, antibody YTHDF3.R.C, Average” value (average of 3 replicates) was 0.957, the “RPPA signal, antibody ZAP.70.R.V, Average” value (average of 3 replicates) was 0.929 and the “RPPA signal, antibody ZEB1.R.V, Average” value (average of 3 replicates) was 1.026. For the same compound, the “RPPA signal, antibody TSC1.R.C” value (individual replicates) was 0.941 and 0.818 and 0.960, the “RPPA signal, antibody TTF1.R.V” value (individual replicates) was 1.015 and 0.923 and 1.110 and the “RPPA signal, antibody TUFM.R.V” value (individual replicates) was 1.758 and 0.731 and 0.819. The “RPPA signal, antibody Tuberin.R.V” value (individual replicates) was 0.781 and 1.344 and 1.402, the “RPPA signal, antibody Tuberin_pT1462.R.V” value (individual replicates) was 0.961 and 1.362 and 1.023 and the “RPPA signal, antibody Twist.M.C” value (individual replicates) was 0.937 and 0.987. The “RPPA signal, antibody Tyro3.R.V” value (individual replicates) was 1.400 and 1.084 and 0.979, the “RPPA signal, antibody U.Histone.H2B.R.C” value (individual replicates) was 5.570 and 0.775 and the “RPPA signal, antibody UBAC1.R.V” value (individual replicates) was 1.007 and 0.954. For the same compound, the “RPPA signal, antibody UBQLN4.M.C” value (individual replicates) was 1.008 and 0.906 and 0.933, the “RPPA signal, antibody UGT1A.M.V” value (individual replicates) was 0.958 and 1.050 and 0.991 and the “RPPA signal, antibody ULK1_pS757.R.C” value (individual replicates) was 0.848 and 1.011.
